Source: BigSolDB 2.1

Conditions: in water

| solubility (mole fraction) (298.15 K) | solubility (mole fraction) (303.15 K) | solubility (mole fraction) (308.15 K) | solubility (mole fraction) (313.15 K) | solubility (mole fraction) (318.15 K) | solubility (mole fraction) (323.15 K) | solubility (mole fraction) (328.15 K) | solubility (mole fraction) (333.15 K) | SMILES |
| --- | --- | --- | --- | --- | --- | --- | --- | --- |
| 4.82e-06 | 6.2e-06 | 8.23e-06 | 1.05e-05 | 1.33e-05 | 1.7e-05 | 2.1e-05 | 2.62e-05 | Nc1ccc(S(=O)(=O)Nc2ncccn2)cc1 |
| 1.12e-05 | 1.35e-05 | 1.59e-05 | 1.91e-05 | 2.3e-05 | 2.75e-05 | 3.28e-05 | 3.91e-05 | Nc1ccc(S(=O)(=O)[N-]c2cncc(Cl)n2)cc1.[Na+] |
| 3.88e-06 | 4.9e-06 | 6.13e-06 | 7.65e-06 | 9.63e-06 | 1.17e-05 | 1.45e-05 | 1.76e-05 | COc1cc(NS(=O)(=O)c2ccc(N)cc2)ncn1 |
| 5.52e-06 | 7.19e-06 | 9.26e-06 | 1.17e-05 | 1.48e-05 | 1.88e-05 | 2.34e-05 | 2.92e-05 | COc1cnc(NS(=O)(=O)c2ccc(N)cc2)nc1 |
| 3.07e-06 | 3.83e-06 | 4.78e-06 | 5.83e-06 | 7.25e-06 | 8.76e-06 | 1.05e-05 | 1.28e-05 | COc1cc(NS(=O)(=O)c2ccc(N)cc2)nc(OC)n1 |
